Laboratory results taken from patent EP1530968A1, “Galangin components for the maintenance of bone health and/or treatment, alleviaton and/or prevention of bone disorder” (N.V. Nutricia, priority 2003, dated 2005).
Marks after values point to notes of the source that are not given here.

Experiments:
[1] = test system: BMP receptor; assay: BRE-Luciferase reporter assay in transiently transfected KS483 cells; format: cell-based, mouse; conditions: 48h
Method: (§1) Mouse pre-osteoblastic cell line KS483 was maintained in phenol red-free α-MEM containing 10% non-charcoal-treated FBS and penicillin/streptomycin. Cells were seeded in 24-well plates at a density of 1.6x10^4 cells/well, and cultured in phenol red-free α-MEM supplemented with penicillin/streptomycin and 10% charcoal-treated FBS. After 24 hours, cells were transiently transfected with 0.25 µg luciferase reporter (see below) using a lipid-based FuGENE 6 transfection reagent according to the manufacturer's recommendations (Roche, Almere, Netherlands). Cells were transfected with luciferase reporter, i.e. either estrogen-receptor-responsive element (ERE-Luciferase) or BMP-receptor-responsive element (BRE-Luciferas), hereinafter jointly referred to as luciferase reporter. Transfection efficiency was measured by co-transfection of 25 ng of SV40-Renilla control vector.. The transfection medium was changed after 18 hours into new α-MEM, containing penicillin/streptomycin and 10% charcoal-treated FBS. […] After 48h, cells were washed twice with PBS and frozen at -20°C. Luciferase activity was determined by measuring bioluminescence. Luciferase activity was expressed as fold induction ± SEM, which was corrected for transfection efficiency using sv40-renilla luciferase activity. The measured luciferase activity is indicative for the extent of stimulation of the estrogen receptor or BMP receptor by the test component. Subsequently the ratio ERE stimulation/BRE stimulation (ERE/BRE ratio) was determined, which is indicative for the estrogenic effects of the test component (Table 3).

[2] = test system: estrogen receptor (ERE) and BMP receptor (BRE); assay: Ratio ERE stimulation/BRE stimulation (ERE/BRE ratio) in KS483 cells; format: cell-based, mouse; conditions: for ERE/BRE: ratio ERE stimulation/BRE stimulation
Method: as §1

[3] = test system: estrogen receptor; assay: ERE-Luciferase reporter assay in transiently transfected KS483 cells; format: cell-based, mouse; conditions: 48h
Method: as §1

[4] = Body weight, fat percentage, food and water intake and uterus weight in SAMP6 mice; format: in vivo
Excerpt: (§2) Senescence accelerated mice prone for osteoporosis (SAMP6) and senescence accelerated resistant mice (SAMR) were obtained from Kyoto University, Kyoto, Japan. Mice were bred and kept under specific pathogen free conditions at the Center for small experimental animals in Wageningen. Procedures were approved by the external independent ethical committee for animal care and use (Zeist, The Netherlands). Female SAMP6 mice were randomized on the basis of body weight at the age 20 weeks and divided in 5 groups. […] The galangin was obtained from ICC, Sommerville, NJ, USA. The mice were treated from the age of 22 weeks to the age of 32 weeks. Animals were housed in pairs at 21°C with a 12-hour light/dark cycle in a room without male mice. Until the age of 22 weeks, animals were fed a complete rodent diet, free of flavonoids and isoflavones (RMH-B, Hope Farms, Woerden, The Netherlands). From 22 to 32 weeks of age, animals were fed diets composed according to the RDA of mice (Nutrient requirements of mice, National Academic press, Wahington, USA,1995) and demineralized water. Composition of all diets was identical, except for their galangin contents. All diets and water were supplied ad libitum. Food and water intake and body weight (BW) was registered weekly. Animals were checked daily for abnormal behavior and appearance. […] Implants were replaced after 6 weeks.
(§3) At the age of 22, 25, 28 and 32 weeks, bone mineral density (BMD) and body composition was determined with the aid of Dual energy X-ray absorptiometry (DXA) (Piximus, Lunar Corp, Madison, WI, USA) using the total body mode. Mice were anaesthetized with halothane and front and hind legs were extended. Bone mineral density of the lumbar spine (BMDLS) and the femur (BMDF) were determined within pre-defined regions of interest. Total body fat percentage was determined using the total body mode.

[5] = test system: KS483 (mouse pre-osteoblastic cell line); assay: Alkaline phosphatase (ALP) activity corrected for DNA in KS483 cells after 18 days exposure; format: cell-based; conditions: for ALP activity (mean ± SEM): 18 days, corrected for DNA, compared to control levels
Method: (§4) KS483 (mouse pre-osteoblastic cell line, Leids Universitair […] Centrum, Leiden, The Netherlands) was maintained in phenol red-free alpha-minimum essential medium (α-MEM) containing 10% non-charcoal-treated fetal bovine serum (FBS) and penicillin/streptomycin. Cells were seeded in 12-well plates at a density of 4.5x10^4 cells/well, and cultured in phenol red-free α-MEM supplemented with penicillin/streptomycin and 10% charcoal-treated FBS. Cells were exposed to vehicle (0.01 wt.% DMSO) , β-estradiol as a positive control (10^-8 M and 10^-9 M in 0.01 wt.% DMSO) or galangin (10^-5 M, 10^-6 M and 10^-7 M in 0.01 wt.% DMSO) for 18 days. From day 4 ascorbic acid (50μg/ml), and from day 11 β-glycerolphosphate (5mM) were added to the culture medium. Every 3-4 days the medium was changed. At day 18, cells were washed twice with ice-cold phosphate buffered saline (PBS), frozen immediately, and stored at -20°C for further use. The cells were lysed in 400μl SSC (15 mM sodium citrate and 150 mM sodium chloride) with 0.01% sodium dodecyl sulfate (SDS). Alkaline phosphatase (ALP) activity was determined kinetically in 25μl aliquots by colorimetric determination of the produced p-nitrophenol at 405 nm, using 6 mmol/L p-nitrophenylphosphate as a substrate at a 37°C and pH 10.5. To correct the ALP activity determination for cell quantity, the DNA content was measured in 100μl aliquots, using Hoechst 33258 and calibrated against a DNA standard (0.5-10μg/mL salmon sperm DNA). Fluorescence was measured at a wavelength of 355-460 nm. Calcium deposition (see Table 2) was determined using the cresolphthalein complexon method according to Henri et al, 1974 (Clinical Biochemistry. Principles and Techniques. Harper and Row, New York, USA. All chemicals were obtained from Sigma-Aldrich (Zwijndrecht, The Netherlands). TABLE 1

[6] = test system: SAMP6 mice; assay: Bone mineral density by DXA in senescence accelerated mice prone for osteoporosis (SAMP6); format: in vivo; conditions: for BMD-LS change ( BMDLS) after 10 weeks of treatment / Bone mineral density of the lumbar spine (BMD-LS): female SAMP6 mice, E subcutaneous implant; for BMD-LS change ( BMDLS) after 10 weeks of treatment: age 22 to 32 weeks
Excerpt: as §2, §3

[7] = test system: KS483 (mouse pre-osteoblastic cell line); assay: Calcium deposition in KS483 cells (cresolphthalein complexon method); format: cell-based; conditions: for Fold increase of calcium (mean ± SEM): 18 days, compared to control levels
Method: as §4

[8] = compared with control group, SAMP6 mice, galangin throughout the study, E from 25 weeks of age onwards
[9] = age 22 weeks (before start of the intervention), galangin 0.4 mg per 100 g feed
[10] = age 25 weeks, treated from 22 weeks, galangin 0.4 mg per 100 g feed
[11] = age 28 weeks, treated from 22 weeks, galangin 0.4 mg per 100 g feed
[12] = age 32 weeks, treated from 22 weeks, galangin 0.4 mg per 100 g feed
[13] = from 25 weeks of age onwards, subcutaneous implant, intact SAMP6-mice

| SMILES | BMD-LS change ( BMDLS) after 10 weeks of treatment ([6]; galangin 0.4 mg per 100 g feed) | Bone mineral density of the lumbar spine (BMD-LS) [6, 9] [g/cm^2] | Bone mineral density of the lumbar spine (BMD-LS) [6, 10] [g/cm^2] | Bone mineral density of the lumbar spine (BMD-LS) [6, 11] [g/cm^2] | Bone mineral density of the lumbar spine (BMD-LS) [6, 12] | BRE ([1]; 10^-5M) [fold induction] | BRE ([1]; 10^-6M) [fold induction] | BRE ([1]; 10^-7M) [fold induction] | ERE/BRE ([2]; 10^-5M) | ERE/BRE ([2]; 10^-6M) | ERE/BRE ([2]; 10^-7M) | ERE ([3]; 10^-5M) [fold induction] | ERE ([3]; 10^-6M) [fold induction] | ERE ([3]; 10^-7M) [fold induction] | further results |
| --- | --- | --- | --- | --- | --- | --- | --- | --- | --- | --- | --- | --- | --- | --- | --- |
| C[C@]12CC[C@@H]3c4ccc(O)cc4CC[C@H]3[C@@H]1CC[C@@H]2O [β-E, 17 β-estradiol] | +23.4 ^a | 0.0700 | 0.0774 | 0.08315 | 0.0868 ^a g/cm^2 | – | – | – | – | – | – | – | – | – | BRE ([1]; 10^-8M): 1.0 fold induction; BRE ([1]; 10^-9M): 1.6 fold induction; BRE ([1]; 10^-10M): 1.0 fold induction; ERE/BRE ([2]; 10^-8M): 8.6; ERE/BRE ([2]; 10^-10M): 19.4; ERE ([3]; 10^-8M): 9.0 fold induction; ERE ([3]; 10^-9M): 15.8 fold induction; ERE ([3]; 10^-10M): 20.2 fold induction; Uterus weight ([4]; at 32 weeks of age, compared with control group, SAMP6 mice): significantly higher; body weight [4, 8]: significantly lower; fat percentage [4, 8]: significantly lower; food and water intake [4, 8]: significantly lower; ALP activity (mean ± SEM) ([5]; 10^-8M): 2.6 ± 0.129^a fold induction; ALP activity (mean ± SEM) ([5]; 10^-9M): 2.5 ± 0.184^a fold induction; BMD-F [6, 13]: significantly higher; BMD-LS [6, 13]: significantly higher |
| O=c1c(O)c(-c2ccccc2)oc2cc(O)cc(O)c12 [Gal, 3,5,7-trihydroxyflavone] | -14.1 ^a | 0.0691 | 0.0658 | 0.0621 | 0.0601 ^a g/cm^2 | 2.0 | 0.9 | 0.9 | 2.0 | 1.2 | 1.1 | 3.8 | 1.0 | 0.9 | Fold increase of calcium (mean ± SEM) ([7]; 10^-5M): 2.3 ± 0.160^a fold induction; Fold increase of calcium (mean ± SEM) ([7]; 10^-6M): 1.2 ± 0.132 fold induction; Fold increase of calcium (mean ± SEM) ([7]; 10^-7M): 1.3 ± 0.038 fold induction; Calcium deposition ([7]; after treatment, result in words): significantly increased; ratio ERE/BRE relative to kaempherol and quercitin ([2]; galangin ratio as share of the ratio of kaempherol and quercitin): less than 50%; ERE/BRE ratio ([2]; result in words, galangin as compared to kaempherol and quercetin): low; fat percentage ([4]; mouse, in vivo): No statistical differences; food and water intake ([4]; mouse, in vivo): No statistical differences; ALP activity (mean ± SEM) ([5]; 10^-5M): 3.7 ± 0.152^a fold induction; ALP activity (mean ± SEM) ([5]; 10^-6M): 1.4 ± 0.055^a fold induction; ALP activity (mean ± SEM) ([5]; 10^-7M): 1.1 ± 0.071 fold induction; ALP activity ([5]; result in words): significantly increased; loss of BMD-LS during the 10-week intervention period compared with controls ([6]; 0.04 mg galangin/100 g food (so in the source), SAMP6 mice): significantly lower; % inhibition compared to SAMPC ([6]; BMD-LS change after 10 weeks of treatment, galangin 0.4 mg per 100 g feed, SAMP6 mice): 40%; BMD-LS compared with controls ([6]; at 32 weeks, 0.4 mg galangin/100 g feed, SAMP6 mice): significantly higher |
| O=c1c(O)c(-c2ccc(O)c(O)c2)oc2cc(O)cc(O)c12 [Q, quercetin] | – | – | – | – | – | 1.6 | 1.0 | 0.9 | 5.0 | 1.6 | 1.6 | 7.9 | 1.5 | 1.4 | – |
| O=c1c(O)c(-c2ccc(O)cc2)oc2cc(O)cc(O)c12 [K, kaemferol] | – | – | – | – | – | 2.4 | 1.4 | 1.1 | – | – | – | – | – | – | – |
